Experimental findings from ChEMBL document CHEMBL1144587, “Synthesis and antiviral activity of C-fluoro-branched cyclopropyl nucleosides” (Eur J Med Chem, 2007) are described below.

Common to all, as to assay type: functional, organism-based
One experiment deals with Human alphaherpesvirus 1. Nature of the experiment: Antiviral activity against HSV1 in CCL81 cells. As to conditions: Human alphaherpesvirus 1, CCL 81.
In another experiment the test system is Human alphaherpesvirus 2. Nature of the experiment: Antiviral activity against HSV2 in CCL81 cells. As to conditions: Human alphaherpesvirus 2, CCL 81.
Experiment [1] has as its system Human immunodeficiency virus 1. In words: Antiviral activity against HIV1 in MT4 cells. As to conditions: Human immunodeficiency virus 1, MT4.
The subject of another experiment is Human betaherpesvirus 5. In words: Antiviral activity against HCMV AD169. As to conditions: Human betaherpesvirus 5, AD169.

A value given as a limit tells only on which side of the number the result lay.

On to `C[C@]1(CO)C[C@]1(F)n1ccc(N)nc1=O` (racemic), for which the 50% effective concentration (EC50) (in the experiment with Human alphaherpesvirus 1; in the experiment with Human alphaherpesvirus 2; in experiment [1]; in the experiment with Human betaherpesvirus 5) was more than 100 µM throughout.
Turning to `C[C@]1(CO)C[C@@]1(F)n1ccc(=O)[nH]c1=O` (racemic), the EC50 was more than 100 µM with Human alphaherpesvirus 1, more than 100 µM in the experiment with Human alphaherpesvirus 2, more than 100 µM in experiment [1] and 43 µM in the experiment with Human betaherpesvirus 5.
With `Cc1cn([C@]2(F)C[C@]2(C)CO)c(=O)[nH]c1=O` (racemic), the EC50 in the experiment with Human alphaherpesvirus 1 is more than 100 µM; in the experiment with Human alphaherpesvirus 2, more than 100 µM; in experiment [1], 35 µM; in the experiment on Human betaherpesvirus 5 it was more than 100 µM.
As to `Cc1cn([C@@]2(F)C[C@]2(C)CO)c(=O)[nH]c1=O` (racemic), the concentration giving a half-maximal response (EC50) in the experiment with Human alphaherpesvirus 1 was more than 100 µM; with Human alphaherpesvirus 2, more than 100 µM; in experiment [1], 89 µM; with Human betaherpesvirus 5, 51.4 µM.
Consider `C[C@]1(CO)C[C@]1(F)n1cnc2c(N)ncnc21` (racemic), for which the EC50 is 67 µM in the experiment with Human alphaherpesvirus 1, more than 100 µM with Human alphaherpesvirus 2, more than 100 µM in experiment [1] and 71 µM with Human betaherpesvirus 5.
As to `C[C@]1(CO)C[C@@]1(F)n1cnc2c(N)ncnc21` (racemic), the EC50 with Human alphaherpesvirus 1 was 87 µM; with Human alphaherpesvirus 2, more than 100 µM; in experiment [1], more than 100 µM; in the experiment with Human betaherpesvirus 5 it was more than 100 µM.
For `C[C@]1(CO)C[C@@]1(F)n1ccc(N)nc1=O` (racemic), the EC50 in the experiment with Human alphaherpesvirus 1 was more than 100 µM; in the experiment on Human alphaherpesvirus 2, more than 100 µM; in experiment [1], 65 µM; in the experiment on Human betaherpesvirus 5 it was more than 100 µM.
Turning to `C[C@]1(CO)C[C@]1(F)n1ccc(=O)[nH]c1=O` (racemic), the concentration giving a half-maximal response (EC50) was more than 100 µM in the experiment with Human alphaherpesvirus 1, more than 100 µM with Human alphaherpesvirus 2, 19.4 µM in experiment [1] and 10.6 µM in the experiment on Human betaherpesvirus 5.
As for `Nc1nc2c(ncn2COC(CO)CO)c(=O)[nH]1` [GANCICLOVIR], the EC50 stood at 1.5 µM in the experiment with Human alphaherpesvirus 1, 1.5 µM in the experiment with Human alphaherpesvirus 2 and 1.01 µM in the experiment with Human betaherpesvirus 5.
As to `Cc1cn([C@H]2C[C@H](N=[N+]=[N-])[C@@H](CO)O2)c(=O)[nH]c1=O` [ZIDOVUDINE], the EC50 in experiment [1] amounted to 0.0008 µM.
